# In US11351192B2, “De-colonization drug, preparation method therefor, and application thereof” (BEIJING HYGIENE & HEALTHCARE INNOVATION TECHNOLOGY CO., LTD., priority 2017, dated 2022):
# Tested on: multi-drug resistant bacteria
# Format: in vivo, hospitalized patients
# Text: Using the case-control experiment, all newly-increased patients with multi-drug resistant bacteria in the cooperative hospital are selected for a period of time. The hospitalized patients are divided into the control group and the experimental group, and the control group is selected to be applied intranasally with mupirocin for 5 consecutive days and twice daily.
# During the experiment, it can be found by electron microscopy at 200-fold whether mucosa has interstitial edema, inflammatory cell infiltration or surface epithelial cell shedding; it can show by electron microscopy at 6000-fold whether the mitochondria in the glandular epithelial cells are swollen or edema, it can show by electron microscopy at 10000-fold whether the morphology and structure of the ciliated epithelial cells is normal. FIGS. 1 and 2 are the electron microscopic images of the nasal mucosa by electron microscopy at 200-fold.
# [1] = hospitalized patients, decolonization drug twice a day 3 days, mupirocin twice daily 5 days
compound,measurement,setting,value
C/C(=C\C(=O)OCCCCCCCCC(=O)O)C[C@@H]1OC[C@H](C[C@@H]2O[C@H]2[C@@H](C)[C@H](C)O)[C@@H](O)[C@H]1O [mupirocin],cases of methicillin-resistant Staphylococcus aureus (MRSA),[1],35 cases
same,cases of multi-drug resistant bacteria,[1],120 cases
same,ratio of MRSA cases among multi-drug resistant bacteria cases,[1],29.16%
same,adverse reactions (edema and hyperemia symptoms of nasal mucosa),"human, in vivo, 5 days",2
